Source: patent publication US12679878B2, “CRF2 receptor agonists and their use in therapy” (SANOFI, priority 2020, dated 2026)
Like-named read-outs stand apart in the source and are kept apart here. Starred links: 1 amine or outer side, 2 acyl side, 3 side chain; linkers in the order of their positions; H or OH if unused. Non-standard residues stand in square brackets, D forms with d. Residues, ends and D or L forms follow the SMILES beside them. Groups on a side chain read outwards from the residue. *: point of attachment. C18 diacid = O=C(O)CCCCCCCCCCCCCCCCC(=O)*; γGlu = O=C(O)[C@H](CCC(=O)[*:2])N[*:1]; AEEA = NCCOCCOCC(=O)O; Aib = CC(C)(N)C(=O)O

Tests used:
human CRF2α receptor = molecular target: T1, human CRF2α receptor (Homo sapiens, UniProt Q13324); experiment: cAMP agonism at human CRF2 α receptor in TeloHEAC cells (Example 7); format: cell-based; conditions: cAMP HTRF, TeloHEAC cells stably expressing human CRF2 α
T1 construct: expressed in transfected cells; host or cells: TeloHEAC
T1 sequence (Q13324 1-411): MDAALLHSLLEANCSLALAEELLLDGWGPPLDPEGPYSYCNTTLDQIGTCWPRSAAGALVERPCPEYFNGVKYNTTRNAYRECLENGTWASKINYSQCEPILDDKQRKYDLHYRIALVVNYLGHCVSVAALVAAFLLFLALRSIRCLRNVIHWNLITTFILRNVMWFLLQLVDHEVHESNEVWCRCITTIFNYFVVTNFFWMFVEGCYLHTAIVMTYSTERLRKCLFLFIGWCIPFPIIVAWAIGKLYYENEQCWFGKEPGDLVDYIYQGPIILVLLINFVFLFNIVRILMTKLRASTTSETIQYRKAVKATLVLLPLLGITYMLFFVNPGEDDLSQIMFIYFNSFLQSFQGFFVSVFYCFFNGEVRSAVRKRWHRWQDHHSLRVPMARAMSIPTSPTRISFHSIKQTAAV
Summary of the method: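 HTRF ratio 665/620 nm, read 1 h after lysis reagents, reports cAMP. Cells: thawed stocks, 2000/well, 30 min RT with compound in HBSS, 20 mM HEPES, 0 or 0.1% HSA, 2 mM IBMX. Activity normalised to UCN2 1000 nM = 100%; EC50 from half-maximal activation.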

CRF1R receptor = molecular target: T2, CRF1R receptor (Homo sapiens, UniProt P34998); experiment: cAMP activity at anti-target CRF1R, CHO-K1 cell line clone 2 (Example 19.10); format: cell-based; conditions: CRF1R CHO-K1 clone 2; for EC50: 0% HSA, read-out: EC50 [nM] 0% HSA; for Emax: 100% = Sauvagine at 100 nM
T2 construct: host or cells: CHO-K1 clone 2
T2 sequence (P34998 24-415): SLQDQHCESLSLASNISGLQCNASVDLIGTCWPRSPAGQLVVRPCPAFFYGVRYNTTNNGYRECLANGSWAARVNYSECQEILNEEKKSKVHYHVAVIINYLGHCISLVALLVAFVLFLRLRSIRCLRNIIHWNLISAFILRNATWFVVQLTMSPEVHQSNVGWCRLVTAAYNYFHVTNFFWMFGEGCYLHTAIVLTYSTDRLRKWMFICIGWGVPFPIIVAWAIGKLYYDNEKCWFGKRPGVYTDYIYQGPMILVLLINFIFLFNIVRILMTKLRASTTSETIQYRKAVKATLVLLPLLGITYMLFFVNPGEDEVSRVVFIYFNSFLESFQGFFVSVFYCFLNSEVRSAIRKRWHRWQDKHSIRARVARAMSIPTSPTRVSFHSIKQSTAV
Summary of the method: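 The cAMP read-out used the same protocol as the previous assay, except that Sauvagine at 100 nM set the 100% activation control. Cells were CHO-K1 clone 2 overexpressing CRF1R, cultured in F12 medium with 10% FBS and G418 and stored frozen until use.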

[1] = 0% HSA, read-out: EC50 [nM], 0% HSA

In the case of `CC[C@H](C)[C@H](N)C(=O)N[C@H](C(=O)N[C@@H](CC(C)C)C(=O)N[C@@H](CO)C(=O)N[C@@H](CC(C)C)C(=O)N[C@@H](CC(=O)O)C(=O)N[C@H](C(=O)N1CCC[C@H]1C(=O)N[C@H](C(=O)N[C@@H](CCCCN)C(=O)N[C@@H](CC(C)C)C(=O)N[C@@H](CCCCNC(=O)COCCOCCNC(=O)COCCOCCNC(=O)CC[C@H](NC(=O)CCCCCCCCCCCCCCCCC(=O)O)C(=O)O)C(=O)N[C@@H](CCC(N)=O)C(=O)N[C@H](C(=O)N[C@@H](CC(C)C)C(=O)N[C@@H](CC(C)C)C(=O)N[C@@H](CCCCN)C(=O)N[C@@H](CCC(N)=O)C(=O)N[C@@H](CCC(=O)O)C(=O)N[C@@H](CCCNC(=N)N)C(=O)N[C@@H](CCC(N)=O)C(=O)N[C@@H](CCCCN)C(=O)N[C@@H](CCCCN)C(=O)N[C@@H](CCC(N)=O)C(=O)N[C@@H](CCCNC(=N)N)C(=O)N[C@@H](CCC(=O)O)C(=O)N[C@@H](CCC(N)=O)C(=O)N[C@@H](C)C(=O)N[C@@H](CCCCN)C(=O)N[C@H](C(=O)N[C@@H](CC(N)=O)C(=O)NC(C)(C)C(=O)N[C@@H](CCC(N)=O)C(=O)N[C@H](C(=O)N[C@@H](CC(C)C)C(=O)N[C@@H](C)C(=O)N[C@@H](CCC(N)=O)C(=O)N[C@H](C(N)=O)C(C)C)[C@@H](C)CC)[C@@H](C)O)[C@@H](C)CC)[C@@H](C)CC)C(C)C)C(C)C` [compound 89] (H-IVLSLDVPIKLK([AEEA-AEEA-γGlu-C18 diacid])QILLKQERQKKQREQAKTN[Aib]QILAQV-NH2), the EC50 (human CRF2α receptor; [1]) is reported as 0.3 nM, the EC50 (human CRF2α receptor; 0.1% HSA, read-out: EC50 [nM], 0.1% HSA) is reported as 15.6 nM and the EC50 (CRF1R receptor) is reported as > 100 nM. The Emax (CRF1R receptor) was 3.7%.

With `CC[C@H](C)[C@H](N)C(=O)N[C@H](C(=O)N[C@@H](CC(C)C)C(=O)N[C@@H](CO)C(=O)N[C@@H](CC(C)C)C(=O)N[C@@H](CC(=O)O)C(=O)N[C@H](C(=O)N1CCC[C@H]1C(=O)N[C@H](C(=O)N[C@@H](CCCCN)C(=O)N[C@@H](CC(C)C)C(=O)N[C@@H](CCCCNC(=O)COCCOCCNC(=O)COCCOCCNC(=O)CC[C@H](NC(=O)CCCCCCCCCCCCCCCCC(=O)O)C(=O)O)C(=O)N[C@@H](CCC(N)=O)C(=O)N[C@H](C(=O)N[C@@H](CC(C)C)C(=O)N[C@@H](CC(C)C)C(=O)N[C@@H](CCCCN)C(=O)N[C@@H](CCC(N)=O)C(=O)N[C@@H](CCC(=O)O)C(=O)N[C@@H](CCCNC(=N)N)C(=O)N[C@@H](CCC(N)=O)C(=O)N[C@@H](CCCCN)C(=O)N[C@@H](CCCCN)C(=O)N[C@@H](CCC(=O)O)C(=O)N[C@@H](CCCNC(=N)N)C(=O)N[C@@H](CCC(=O)O)C(=O)N[C@@H](CCC(N)=O)C(=O)N[C@@H](C)C(=O)N[C@@H](CCC(=O)O)C(=O)N[C@H](C(=O)N[C@@H](CC(N)=O)C(=O)N[C@@H](CCCCN)C(=O)N[C@@H](CCC(N)=O)C(=O)N[C@H](C(=O)N[C@@H](CC(C)C)C(=O)N[C@@H](C)C(=O)N[C@@H](CCC(N)=O)C(=O)N[C@H](C(N)=O)C(C)C)[C@@H](C)CC)[C@@H](C)O)[C@@H](C)CC)[C@@H](C)CC)C(C)C)C(C)C` [compound 96] (H-IVLSLDVPIKLK([AEEA-AEEA-γGlu-C18 diacid])QILLKQERQKKEREQAETNKQILAQV-NH2; N-terminus assumed) the EC50 (human CRF2α receptor; [1]) was 0.38 nM, the EC50 (CRF1R receptor) was > 100 nM and the Emax (CRF1R receptor) was 2.3%.

For `CC[C@H](C)[C@H](N)C(=O)N[C@H](C(=O)N[C@@H](CC(C)C)C(=O)N[C@@H](CO)C(=O)N[C@@H](CC(C)C)C(=O)N[C@@H](CC(=O)O)C(=O)N[C@@H](C(=O)N1CCC[C@H]1C(=O)N[C@H](C(=O)N[C@@H](CCCCN)C(=O)N[C@@H](CC(C)C)C(=O)N[C@@H](CCCCNC(=O)COCCOCCNC(=O)COCCOCCNC(=O)CC[C@H](NC(=O)CCCCCCCCCCCCCCCCC(=O)O)C(=O)O)C(=O)N[C@@H](CCC(N)=O)C(=O)N[C@H](C(=O)N[C@@H](CC(C)C)C(=O)N[C@@H](CC(C)C)C(=O)N[C@@H](CCCCN)C(=O)N[C@@H](CCC(N)=O)C(=O)N[C@@H](CCC(=O)O)C(=O)N[C@@H](CCCNC(=N)N)C(=O)N[C@@H](CCC(N)=O)C(=O)N[C@@H](CCCCN)C(=O)N[C@@H](CCCCN)C(=O)N[C@@H](CCC(N)=O)C(=O)N[C@@H](CCCNC(=N)N)C(=O)N[C@@H](CCC(=O)O)C(=O)N[C@@H](CCC(N)=O)C(=O)N[C@@H](C)C(=O)N[C@@H](CCC(=O)O)C(=O)N[C@H](C(=O)N[C@@H](CC(N)=O)C(=O)N[C@@H](CCCCN)C(=O)N[C@@H](CCC(N)=O)C(=O)N[C@H](C(=O)N[C@@H](CC(C)C)C(=O)N[C@@H](C)C(=O)N[C@@H](CCC(N)=O)C(=O)N[C@H](C(N)=O)C(C)C)[C@@H](C)CC)[C@@H](C)O)[C@@H](C)CC)[C@@H](C)CC)C(C)C)C(C)C` [compound 102] (H-IVLSLD[dV]PIKLK([AEEA-AEEA-γGlu-C18 diacid])QILLKQERQKKQREQAETNKQILAQV-NH2; N-terminus assumed), the EC50 (human CRF2α receptor; [1]) was 0.07 nM, the EC50 (CRF1R receptor) was > 100 nM and the Emax (CRF1R receptor) was 9%.

`CC[C@H](C)[C@H](N)C(=O)N[C@H](C(=O)N[C@@H](CC(C)C)C(=O)N[C@@H](CO)C(=O)N[C@@H](CC(C)C)C(=O)N[C@@H](CC(=O)O)C(=O)N[C@H](C(=O)N1CCC[C@H]1C(=O)N[C@H](C(=O)N[C@@H](CCCCN)C(=O)N[C@@H](CC(C)C)C(=O)N[C@@H](CCCCNC(=O)COCCOCCNC(=O)COCCOCCNC(=O)CC[C@H](NC(=O)CCCCCCCCCCCCCCCCC(=O)O)C(=O)O)C(=O)N[C@@H](CCC(N)=O)C(=O)N[C@H](C(=O)N[C@@H](CC(C)C)C(=O)N[C@@H](CC(C)C)C(=O)N[C@@H](CCC(=O)O)C(=O)N[C@@H](CCC(N)=O)C(=O)N[C@@H](CCC(=O)O)C(=O)N[C@@H](CCCNC(=N)N)C(=O)N[C@@H](CCC(N)=O)C(=O)N[C@@H](CCCCN)C(=O)NC(C)(C)C(=O)N[C@@H](CCC(N)=O)C(=O)N[C@@H](CCCNC(=N)N)C(=O)N[C@@H](CCC(=O)O)C(=O)N[C@@H](CCC(N)=O)C(=O)N[C@@H](C)C(=O)N[C@@H](CCC(=O)O)C(=O)N[C@H](C(=O)N[C@@H](CC(N)=O)C(=O)N[C@@H](CCCCN)C(=O)N[C@@H](CCC(N)=O)C(=O)N[C@H](C(=O)N[C@@H](CC(C)C)C(=O)N[C@@H](C)C(=O)N[C@@H](CCC(N)=O)C(=O)N[C@H](C(N)=O)C(C)C)[C@@H](C)CC)[C@@H](C)O)[C@@H](C)CC)[C@@H](C)CC)C(C)C)C(C)C` [compound 103] (H-IVLSLDVPIKLK([AEEA-AEEA-γGlu-C18 diacid])QILLEQERQK[Aib]QREQAETNKQILAQV-NH2) was tested, and the EC50 (human CRF2α receptor; [1]) was 0.84 nM, the EC50 (CRF1R receptor) was > 100 nM and the Emax (CRF1R receptor) was 14%.
